Data set [1] addresses Protein arginine N-methyltransferase 5 (Homo sapiens, UniProt O14744). Kind of data set: Inhibition of PRMT5 (unknown origin) by radiometric-based scintillation proximity assay.
Data set [2] addresses Epidermal growth factor receptor (Homo sapiens, UniProt P00533). Kind of data set: Inhibition of wild type GST-tagged EGFR catalytic domain (unknown origin) expressed in insect cells using poly(Glu-Tyr) as substrate incubated for 6 mins by ELISA. The arrangement: species or system Insect cell.
Another data set concerns MCF7. Kind of data set: Antiproliferative activity against human MCF7 cells assessed as inhibition of cell growth by CCK-8 assay.
Data set [3] can be described thus: Metabolic stability in rat liver microsomes assessed as compound remaining at […] measured after 30 mins in presence of NADPH by LC-MS/MS analysis. The data set is classed as ADME, Microsome. The conditions noted are these: read-out: Stability.
Data set [4] is described as follows: Metabolic stability in human liver microsomes assessed as compound remaining at […] measured after 30 mins in presence of NADPH by LC-MS/MS analysis. In kind it is ADME, Microsome. Particulars: read-out: Stability.
The subject of another data set is HeLa. Kind of data set: Antiproliferative activity against human HeLa cells assessed as inhibition of cell growth by CCK-8 assay.
For a further data set, the system named is A549. Kind of data set: Antiproliferative activity against human A549 cells assessed as inhibition of cell growth by CCK-8 assay.
For a further data set, the system named is HepG2. Kind of data set: Antiproliferative activity against human HepG2 cells assessed as inhibition of cell growth by CCK-8 assay.
The next data set has as its system MDA-MB-231. Kind of data set: Antiproliferative activity against human MDA-MB-231 cells assessed as inhibition of cell growth by CCK-8 assay.
Data set [5] concerns the target Protein arginine N-methyltransferase 1 (Homo sapiens, UniProt Q99873). Kind of data set: Inhibition of PRMT1 (unknown origin) using [3H]SAM as substrate preincubated for 15 mins followed by substrate addition and measured after 60 mins by microbeta scintillation counting analysis.
In data set [6] the target is T1, Histone-arginine methyltransferase CARM1 (Homo sapiens, UniProt Q86X55).
T1 sequence (Q86X55 whole entry): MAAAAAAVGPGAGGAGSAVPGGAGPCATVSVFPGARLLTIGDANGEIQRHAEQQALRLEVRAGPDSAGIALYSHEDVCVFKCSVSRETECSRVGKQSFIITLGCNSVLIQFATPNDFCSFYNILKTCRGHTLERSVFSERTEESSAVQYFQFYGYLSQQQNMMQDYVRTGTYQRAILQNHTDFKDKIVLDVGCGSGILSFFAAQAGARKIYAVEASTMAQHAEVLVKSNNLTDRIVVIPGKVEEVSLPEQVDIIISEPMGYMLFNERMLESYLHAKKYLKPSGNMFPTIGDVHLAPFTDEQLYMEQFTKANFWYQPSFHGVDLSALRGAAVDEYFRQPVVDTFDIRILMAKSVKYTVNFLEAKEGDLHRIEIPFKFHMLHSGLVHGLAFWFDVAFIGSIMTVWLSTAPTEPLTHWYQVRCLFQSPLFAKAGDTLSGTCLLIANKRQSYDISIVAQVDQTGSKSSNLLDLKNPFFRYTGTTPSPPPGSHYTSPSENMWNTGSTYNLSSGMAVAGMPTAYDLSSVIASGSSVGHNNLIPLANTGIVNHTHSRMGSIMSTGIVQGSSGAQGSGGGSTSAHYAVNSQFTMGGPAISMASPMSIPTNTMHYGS
Kind of data set: Inhibition of PRMT4 (unknown origin) preincubated for 15 mins followed by substrate addition and measured after 60 mins by AlphaLISA assay.

Chain of Epidermal growth factor receptor (P00533 whole entry, the tested form may be a part): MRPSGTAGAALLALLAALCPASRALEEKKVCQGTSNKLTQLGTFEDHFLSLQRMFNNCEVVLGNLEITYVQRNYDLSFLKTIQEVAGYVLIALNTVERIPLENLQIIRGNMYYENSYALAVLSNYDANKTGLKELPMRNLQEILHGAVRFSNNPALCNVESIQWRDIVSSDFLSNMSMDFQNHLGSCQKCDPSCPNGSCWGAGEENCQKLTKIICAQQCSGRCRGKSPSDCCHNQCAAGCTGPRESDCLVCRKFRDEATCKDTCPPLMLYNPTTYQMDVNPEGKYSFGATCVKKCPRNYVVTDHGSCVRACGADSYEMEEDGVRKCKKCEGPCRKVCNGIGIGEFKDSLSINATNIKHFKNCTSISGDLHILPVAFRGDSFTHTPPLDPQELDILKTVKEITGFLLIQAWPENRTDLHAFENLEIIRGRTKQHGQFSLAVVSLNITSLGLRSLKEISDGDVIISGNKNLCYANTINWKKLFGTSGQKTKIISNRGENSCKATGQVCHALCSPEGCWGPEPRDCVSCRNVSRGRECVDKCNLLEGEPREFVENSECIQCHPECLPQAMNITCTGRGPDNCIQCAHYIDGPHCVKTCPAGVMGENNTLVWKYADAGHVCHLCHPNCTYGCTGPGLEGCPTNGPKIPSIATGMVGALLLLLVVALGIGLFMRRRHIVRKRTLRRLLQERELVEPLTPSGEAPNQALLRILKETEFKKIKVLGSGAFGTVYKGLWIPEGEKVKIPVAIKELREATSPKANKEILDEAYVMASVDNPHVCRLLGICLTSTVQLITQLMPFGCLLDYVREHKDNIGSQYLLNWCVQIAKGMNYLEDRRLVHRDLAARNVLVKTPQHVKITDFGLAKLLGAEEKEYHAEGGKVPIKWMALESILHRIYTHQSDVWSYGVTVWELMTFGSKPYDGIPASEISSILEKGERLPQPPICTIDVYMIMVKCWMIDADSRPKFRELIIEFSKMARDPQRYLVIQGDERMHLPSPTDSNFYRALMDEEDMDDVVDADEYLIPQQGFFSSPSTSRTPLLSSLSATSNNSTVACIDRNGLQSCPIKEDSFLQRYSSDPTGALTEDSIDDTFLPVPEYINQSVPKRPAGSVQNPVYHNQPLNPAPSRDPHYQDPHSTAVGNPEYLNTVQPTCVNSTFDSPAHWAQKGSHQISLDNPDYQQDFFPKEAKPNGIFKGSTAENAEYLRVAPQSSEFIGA
Chain of Protein arginine N-methyltransferase 5 (O14744 whole entry, the tested form may be a part): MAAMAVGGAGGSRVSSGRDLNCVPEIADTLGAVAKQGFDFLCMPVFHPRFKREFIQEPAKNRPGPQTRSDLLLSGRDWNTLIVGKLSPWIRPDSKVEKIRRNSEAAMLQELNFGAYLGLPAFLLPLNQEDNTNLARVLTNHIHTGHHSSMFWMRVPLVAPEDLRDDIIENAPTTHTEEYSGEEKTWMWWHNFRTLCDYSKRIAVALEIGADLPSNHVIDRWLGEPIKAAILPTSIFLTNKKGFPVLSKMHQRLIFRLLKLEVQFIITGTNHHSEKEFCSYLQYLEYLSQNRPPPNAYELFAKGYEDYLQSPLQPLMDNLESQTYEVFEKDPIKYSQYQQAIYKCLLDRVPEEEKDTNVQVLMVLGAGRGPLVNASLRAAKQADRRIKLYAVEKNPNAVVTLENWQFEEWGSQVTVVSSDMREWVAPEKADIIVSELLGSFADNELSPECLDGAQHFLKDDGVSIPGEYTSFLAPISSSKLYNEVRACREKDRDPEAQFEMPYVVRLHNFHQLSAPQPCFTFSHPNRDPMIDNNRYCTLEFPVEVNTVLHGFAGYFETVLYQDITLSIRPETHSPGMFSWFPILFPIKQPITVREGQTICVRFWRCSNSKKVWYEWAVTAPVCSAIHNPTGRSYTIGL
Chain of Protein arginine N-methyltransferase 1 (Q99873 whole entry): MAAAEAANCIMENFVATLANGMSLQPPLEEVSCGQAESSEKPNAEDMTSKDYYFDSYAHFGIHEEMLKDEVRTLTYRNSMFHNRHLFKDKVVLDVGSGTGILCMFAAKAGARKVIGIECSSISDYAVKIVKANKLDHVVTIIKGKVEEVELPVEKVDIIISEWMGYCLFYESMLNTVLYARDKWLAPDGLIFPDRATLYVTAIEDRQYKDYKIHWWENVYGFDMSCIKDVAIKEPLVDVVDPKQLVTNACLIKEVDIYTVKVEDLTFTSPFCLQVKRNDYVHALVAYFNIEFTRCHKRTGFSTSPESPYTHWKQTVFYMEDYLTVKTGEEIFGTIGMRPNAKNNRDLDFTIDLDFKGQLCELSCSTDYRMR

Take `Cc1cccc(C(=O)Nc2ccc(C3NCCc4c3[nH]c3ccccc43)cc2)c1` (centres undefined): in data set [1], the IC50 is > 100 µM.
Consider `CN1CCc2c([nH]c3ccccc23)C1c1ccc(NC(=O)c2ccc(F)c(C(F)(F)F)c2)cc1` (centres undefined), for which the IC50 in data set [1] and in data set [2] was > 100 µM in each case.
With `COc1cc(C2NCCc3c2[nH]c2ccccc32)ccc1OCc1ccc(C#N)cc1F` (centres undefined), the IC50 in the data set on MCF7 is 13.1 µM; in [1], 70.4 µM; in the data set with HeLa it was 13.3 µM; in the data set on A549 it was 12.8 µM; in [2], 80.6 µM; in the data set on HepG2, > 50 µM. In addition, the IC50 in the data set with MDA-MB-231 is 6.2 µM. Also, the remaining at 0.5 h in [3] was 35.9%; in data set [4] it was 40.6%.
For the molecule `O=C(Nc1ccc(C2NCCc3c2[nH]c2ccccc32)cc1)c1cc(C(F)(F)F)cc(C(F)(F)F)c1` (centres undefined), in data set [1], the IC50 was > 100 µM.
`COc1cc(C2NCCc3c2[nH]c2ccccc32)ccc1OCc1ccc(F)c(C#N)c1` (centres undefined): the IC50 in [1] and in data set [2] was > 100 µM in each case.
With `CN1CCc2c([nH]c3ccccc23)C1c1ccc(OC(=O)c2ccccc2)cc1` (centres undefined), the IC50 in [1] and in data set [2] was > 100 µM each time.
Turning to `COc1cc(C2NCCc3c2[nH]c2ccccc32)ccc1OCc1ccc(B2OC(C)(C)C(C)(C)O2)cc1` (centres undefined), the IC50 in data set [1] was > 100 µM; in [2], 85.8 µM.
`O=C(Nc1ccc(C2NCCc3c2[nH]c2ccccc32)cc1)c1cccc(Cl)c1` (centres undefined) came in with an IC50 in [1] of 46.3 µM.
Consider `CN1CCc2c([nH]c3ccccc23)C1c1ccc(NC(=O)c2cccc([N+](=O)[O-])c2)cc1` (centres undefined), for which the IC50 in [1] and in data set [2] was > 100 µM in each case.
For the molecule `COc1cc(C2NCCc3c2[nH]c2ccccc32)ccc1OCc1ccc(F)cc1` (centres undefined), the IC50 in [1] and in data set [2] was > 100 µM each time.
With `O=C(Nc1ccc(C2NCCc3c2[nH]c2ccccc32)cc1)c1ccccc1` (centres undefined), the IC50 in data set [1] turned out to be 74.5 µM; in data set [2], 56.3 µM.
The corresponding values for `O=C(Nc1ccc(C2NCCc3c2[nH]c2ccccc32)cc1)c1cccc(C(F)(F)F)c1` (centres undefined) are 87.3 µM and 73.7 µM.
For the molecule `COC(=O)c1ccc(C(=O)Nc2ccc(C3NCCc4c3[nH]c3ccccc43)cc2)cc1` (centres undefined), the IC50 in data set [1] was > 100 µM.
Consider `O=C(Nc1ccc(C2NCCc3c2[nH]c2ccccc32)cc1)c1cccc(F)c1` (centres undefined), for which the results for the IC50 in data set [1] and in data set [2] were 71.8 µM and 95.2 µM, respectively.
With `CN1CCc2c([nH]c3ccccc23)C1c1ccc(NC(=O)c2cccc(F)c2)cc1` (centres undefined), the IC50 in data set [1] and in [2] was > 100 µM in each case.
Turning to `COC(=O)c1ccc(COc2ccc(C3NCCc4c3[nH]c3ccccc43)cc2OC)c(F)c1` (centres undefined), the IC50 in data set [1] was > 100 µM; in data set [2], 55.6 µM.
The corresponding values for `COc1cc(C2NCCc3c2[nH]c2ccccc32)ccc1OCc1ccc(F)cc1Cl` (centres undefined) are 76.4 µM and > 100 µM.
The corresponding values for `COc1cc(C2c3[nH]c4ccccc4c3CCN2C)ccc1OC(=O)c1ccccc1` (centres undefined) are > 100 µM and 87.6 µM.
In the case of `COc1cc(C2NCCc3c2[nH]c2ccccc32)ccc1OCc1ccc(C(C)(C)C)cc1` (centres undefined), the IC50 was found to be 3.82 µM in the data set on MCF7; 42.8 µM in [1]; 4.43 µM in the data set with HeLa; 12.4 µM in the data set on A549; 25.4 µM in [2]; 26.4 µM in the data set with HepG2. For the same molecule, the IC50 with MDA-MB-231 worked out at 20.5 µM. For the same molecule, the remaining at 0.5 h is 45.4% in [3] and 50.6% in data set [4].
Consider `CN1CCc2c([nH]c3ccccc23)C1c1ccc(NC(=O)c2ccccc2)cc1` (centres undefined), for which the IC50 in [1] and in [2] was > 100 µM each time.
Consider `CN1CCc2c([nH]c3ccccc23)C1c1ccc(NC(=O)c2cccc(C(F)(F)F)c2)cc1` (centres undefined), for which the IC50 in data set [1] and in data set [2] was > 100 µM in each case.
Consider `COc1cc(C2NCCc3c2[nH]c2ccccc32)ccc1OC(=O)c1ccccc1` (centres undefined), for which the remaining at 0.5 h in data set [3] was 15.1%; in [4], 20.6%. For the same molecule, the IC50 in [1] stood at 48.7 µM; in data set [2], 42.7 µM.
In the case of `COC(=O)c1ccc(COc2ccc(C3NCCc4c3[nH]c3ccccc43)cc2OC)cc1` (centres undefined), the IC50 is 13.7 µM in the data set with MCF7; > 100 µM in data set [5]; 21.3 µM in data set [1]; 13.4 µM in the data set with HeLa; 18.7 µM with A549; > 100 µM in data set [6]. For the same molecule, the IC50 in [2] was 52 µM; in the data set with HepG2, > 50 µM; in the data set with MDA-MB-231 it was > 50 µM. Also, the remaining at 0.5 h came to 5.2% in [3] and 10.3% in data set [4].
On to `COc1cc(C2NCCc3c2[nH]c2ccccc32)ccc1OCc1ccc(F)cc1Br` (centres undefined), for which the IC50 in the data set on MCF7 was 7.46 µM; in data set [1], 36.8 µM; in the data set with HeLa, 7.15 µM; with A549, 13.3 µM; in data set [2], 74.4 µM; in the data set on HepG2 it was > 50 µM. Besides, in the data set on MDA-MB-231, the IC50 stood at 12.9 µM. Besides, the remaining at 0.5 h in data set [3] was determined as 66.5%; in data set [4] it was 61.1%.
With `COc1cc(C2NCCc3c2[nH]c2ccccc32)ccc1OCc1ccccc1` (centres undefined), the IC50 in data set [1] is 32.4 µM; in data set [2], > 100 µM.
In the case of `O=C(Nc1ccc(C2NCCc3c2[nH]c2ccccc32)cc1)c1ccc(C(F)(F)F)cc1` (centres undefined), the IC50 in [1] is > 100 µM.
On the same count and under the same terms, then `O=C(Nc1ccc(C2NCCc3c2[nH]c2ccccc32)cc1)c1ccc([N+](=O)[O-])cc1` (centres undefined), with > 100 µM.
As to `COc1cc(C2NCCc3c2[nH]c2ccccc32)ccc1OCc1ccc(F)c(C(F)(F)F)c1` (centres undefined), the IC50 in data set [1] and in [2] was > 100 µM throughout.
For the molecule `CN1CCc2c([nH]c3ccccc23)C1c1ccc(NC(=O)c2cccc(Cl)c2)cc1` (centres undefined), the IC50 in data set [1] and in data set [2] was > 100 µM each time.
Take `COc1cc(COc2ccc(C3NCCc4c3[nH]c3ccccc43)cc2OC)ccc1F` (centres undefined): the results for the IC50 in data set [1] and in [2] were 23.2 µM and > 100 µM, respectively.
`O=C(Nc1ccc(C2NCCc3c2[nH]c2ccccc32)cc1)c1ccc(Br)cc1` (centres undefined): the IC50 in [1] was > 100 µM.
The same measure, in the same setting: then `Cc1ccccc1C(=O)Nc1ccc(C2NCCc3c2[nH]c2ccccc32)cc1` (centres undefined), with > 100 µM.
Turning to `O=C(Oc1ccc(C2NCCc3c2[nH]c2ccccc32)cc1)c1ccccc1` (centres undefined), the remaining at 0.5 h in data set [3] was determined as 12.3%; in data set [4], 16.4%. Besides, the 50% inhibitory concentration (IC50) in [1] was 59.7 µM; in data set [2] it was 51.5 µM.
Turning to `COc1cc(C2NCCc3c2[nH]c2ccccc32)ccc1OCc1ccc(OC(F)(F)F)c(Cl)c1` (centres undefined), the IC50 with MCF7 amounted to 6.59 µM; in data set [1], 46.9 µM; in the data set on HeLa, 6.92 µM; in the data set on A549, 13.1 µM; in [2], 62.4 µM; with HepG2 it was 40.4 µM. Besides, in the data set with MDA-MB-231, the IC50 is 13.3 µM. Further, the results for the remaining at 0.5 h in [3] and in data set [4] were 76.6% and 70%, respectively.
As for `O=C(Nc1ccc(C2NCCc3c2[nH]c2ccccc32)cc1)c1ccccc1F` (centres undefined), the IC50 in data set [1] is > 100 µM.
With `COc1cc(C2NCCc3c2[nH]c2ccccc32)ccc1OCc1ccc(F)c(Br)c1` (centres undefined), the IC50 was 7 µM in the data set with MCF7; 41.3 µM in data set [1]; 6.86 µM in the data set with HeLa; 7.08 µM with A549; 51.4 µM in [2]; 36 µM in the data set on HepG2. Besides, in the data set with MDA-MB-231, the IC50 is > 50 µM. The remaining at 0.5 h in [3] is 57.8%; in data set [4], 65.4%.
Take `O=C(Nc1ccc(C2NCCc3c2[nH]c2ccccc32)cc1)c1ccc(Cl)cc1` (centres undefined): in data set [1], the IC50 was > 100 µM.
As to `COc1cc(C2NCCc3c2[nH]c2ccccc32)ccc1OCc1ccccc1F` (centres undefined), the IC50 is 55.7 µM in data set [1] and > 100 µM in data set [2].
The corresponding values for `O=C(Nc1ccc(C2NCCc3c2[nH]c2ccccc32)cc1)c1ccc(F)c(C(F)(F)F)c1` (centres undefined) are 66.4 µM and > 100 µM.
The corresponding values for `O=C(Nc1ccc(C2NCCc3c2[nH]c2ccccc32)cc1)c1cccc([N+](=O)[O-])c1` (centres undefined) are 78.9 µM and 60.3 µM.
Regarding `O=C(Nc1ccc(C2NCCc3c2[nH]c2ccccc32)cc1)c1ccc(F)cc1` (centres undefined), in data set [1], the IC50 is > 100 µM.

Source of the values: ChEMBL document CHEMBL5506008, “Synthesis and biological evaluation of 1-phenyl-tetrahydro-β-carboline-based first dual PRMT5/EGFR inhibitors as potential anticancer agents” (Eur J Med Chem, 2024).
